From the supplement of paper PMC10307832

Key:
Assay in all cases: relative viability (nuclei count vs DMSO), 5 days (fraction); higher = more cells survive
A-427 = test system: A-427
Summary of the method: (§1)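 Lung cancer cell lines were pin-tool dosed in 1536-well plates on the day after seeding, with either a lone drug or a fixed anchor-drug dose plus five library-drug doses (not always all listed) in √10 steps. Nuclei were counted on 4× images after 5 days. Relative viability is the ratio of treated-well to vehicle-well nuclei counts, with each value a median of duplicate plates.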

NCI-H2347 = test system: NCI-H2347
Summary of the method: as §1

BEN = test system: BEN
Summary of the method: as §1

NCI-H661 = test system: NCI-H661
Summary of the method: as §1

NCI-H460 = test system: NCI-H460
Summary of the method: as §1

EKVX = test system: EKVX
Summary of the method: as §1

EPLC-272H = test system: EPLC-272H
Summary of the method: as §1

NCI-H2087 = test system: NCI-H2087
Summary of the method: as §1

EMC-BAC-2 = test system: EMC-BAC-2
Summary of the method: as §1

NCI-H520 = test system: NCI-H520
Summary of the method: as §1

LK-2 = test system: LK-2
Summary of the method: as §1

LXF-289 = test system: LXF-289
Summary of the method: as §1

SW 1573 = test system: SW 1573
Summary of the method: as §1

SW 900 = test system: SW 900
Summary of the method: as §1

COR-L23 = test system: COR-L23
Summary of the method: as §1

NCI-H2228 = test system: NCI-H2228
Summary of the method: as §1

NCI-H1650 = test system: NCI-H1650
Summary of the method: as §1

NCI-H1793 = test system: NCI-H1793
Summary of the method: as §1

NCI-H1915 = test system: NCI-H1915
Summary of the method: as §1

NCI-H1651 = test system: NCI-H1651
Summary of the method: as §1

HCC-44 = test system: HCC-44
Summary of the method: as §1

NCI-H358 = test system: NCI-H358
Summary of the method: as §1

COCC1(CO)C(=O)C2CCN1CC2 (configuration not stated) [PRIMA-1MET] + N=C(N)NC(=N)NCCc1ccccc1 [Phenformin] (partner 250 µM)
relative viability (A-427; first compound 0.2 µM): 0.221 | relative viability (A-427; first compound 0.6325 µM): 0.294 | relative viability (A-427; first compound 2 µM): 0.304 | relative viability (A-427; first compound 6.325 µM): 0.281 | relative viability (A-427; first compound 20 µM): 0.133 | relative viability (NCI-H2347; first compound 0.2 µM): 0.265 | relative viability (NCI-H2347; first compound 0.6325 µM): 0.366 | relative viability (NCI-H2347; first compound 2 µM): 0.231 | relative viability (NCI-H2347; first compound 6.325 µM): 0.28 | relative viability (NCI-H2347; first compound 20 µM): 0.387 | relative viability (BEN; first compound 0.2 µM): 0.268 | relative viability (BEN; first compound 0.6325 µM): 0.275 | relative viability (BEN; first compound 6.325 µM): 0.217 | relative viability (BEN; first compound 20 µM): 0.224 | relative viability (NCI-H661; first compound 0.2 µM): 0.304 | relative viability (NCI-H661; first compound 0.6325 µM): 0.261 | relative viability (NCI-H661; first compound 2 µM): 0.274 | relative viability (NCI-H661; first compound 6.325 µM): 0.288 | relative viability (NCI-H661; first compound 20 µM): 0.292 | relative viability (NCI-H460; first compound 0.2 µM): 0.658 | relative viability (NCI-H460; first compound 0.6325 µM): 0.495 | relative viability (NCI-H460; first compound 2 µM): 0.481 | relative viability (NCI-H460; first compound 6.325 µM): 0.042 | relative viability (NCI-H460; first compound 20 µM): 0.0117 | relative viability (EKVX; first compound 0.2 µM): 0.219 | relative viability (EKVX; first compound 0.6325 µM): 0.221 | relative viability (EKVX; first compound 6.325 µM): 0.217 | relative viability (EKVX; first compound 20 µM): 0.222 | relative viability (EPLC-272H; first compound 2 µM): 0.286 | relative viability (EPLC-272H; first compound 6.325 µM): 0.314 | relative viability (EPLC-272H; first compound 20 µM): 0.085 | relative viability (NCI-H2087; first compound 0.2 µM): 0.315 | relative viability (NCI-H2087; first compound 0.6325 µM): 0.332 | relative viability (NCI-H2087; first compound 2 µM): 0.494 | relative viability (NCI-H2087; first compound 6.325 µM): 0.463 | relative viability (NCI-H2087; first compound 20 µM): 0.168 | relative viability (EMC-BAC-2; first compound 0.2 µM): 0.642 | relative viability (EMC-BAC-2; first compound 0.6325 µM): 0.564 | relative viability (EMC-BAC-2; first compound 6.325 µM): 0.609 | relative viability (EMC-BAC-2; first compound 20 µM): 0.352 | relative viability (NCI-H520; first compound 0.2 µM): 0.605 | relative viability (NCI-H520; first compound 0.6325 µM): 0.501 | relative viability (NCI-H520; first compound 2 µM): 0.314 | relative viability (NCI-H520; first compound 6.325 µM): 0.289 | relative viability (NCI-H520; first compound 20 µM): 0.155 | relative viability (LK-2; first compound 0.2 µM): 0.45 | relative viability (LK-2; first compound 0.6325 µM): 0.41 | relative viability (LK-2; first compound 2 µM): 0.228 | relative viability (LK-2; first compound 6.325 µM): 0.14 | relative viability (LK-2; first compound 20 µM): 0.124 | relative viability (LXF-289; first compound 0.2 µM): 0.491 | relative viability (LXF-289; first compound 0.6325 µM): 0.482 | relative viability (LXF-289; first compound 2 µM): 0.428 | relative viability (LXF-289; first compound 6.325 µM): 0.513 | relative viability (LXF-289; first compound 20 µM): 0.456 | relative viability (SW 1573; first compound 0.2 µM): 0.408 | relative viability (SW 1573; first compound 0.6325 µM): 0.291 | relative viability (SW 1573; first compound 2 µM): 0.393 | relative viability (SW 1573; first compound 6.325 µM): 0.22 | relative viability (SW 1573; first compound 20 µM): 0.0256 | relative viability (SW 900; first compound 0.2 µM): 0.665 | relative viability (SW 900; first compound 0.6325 µM): 0.61 | relative viability (SW 900; first compound 2 µM): 0.492 | relative viability (SW 900; first compound 6.325 µM): 0.0861 | relative viability (SW 900; first compound 20 µM): 0.105 | relative viability (COR-L23; first compound 0.2 µM): 0.554 | relative viability (COR-L23; first compound 0.6325 µM): 0.413 | relative viability (COR-L23; first compound 2 µM): 0.477 | relative viability (COR-L23; first compound 6.325 µM): 0.343 | relative viability (COR-L23; first compound 20 µM): 0.0169 | relative viability (NCI-H2228; first compound 0.2 µM): 0.41 | relative viability (NCI-H2228; first compound 0.6325 µM): 0.278 | relative viability (NCI-H2228; first compound 2 µM): 0.336 | relative viability (NCI-H2228; first compound 6.325 µM): 0.213 | relative viability (NCI-H2228; first compound 20 µM): 0.0266 | relative viability (NCI-H1650; first compound 0.2 µM): 0.569 | relative viability (NCI-H1650; first compound 0.6325 µM): 0.443 | relative viability (NCI-H1650; first compound 2 µM): 0.453 | relative viability (NCI-H1650; first compound 6.325 µM): 0.434 | relative viability (NCI-H1650; first compound 20 µM): 0.0427 | relative viability (NCI-H1793; first compound 0.2 µM): 0.465 | relative viability (NCI-H1793; first compound 0.6325 µM): 0.32 | relative viability (NCI-H1793; first compound 6.325 µM): 0.444 | relative viability (NCI-H1793; first compound 20 µM): 0.326 | relative viability (NCI-H1915; first compound 0.2 µM): 0.44 | relative viability (NCI-H1915; first compound 0.6325 µM): 0.345 | relative viability (NCI-H1915; first compound 6.325 µM): 0.399 | relative viability (NCI-H1915; first compound 20 µM): 0.353 | relative viability (NCI-H1651; first compound 0.2 µM): 0.297 | relative viability (NCI-H1651; first compound 0.6325 µM): 0.244 | relative viability (NCI-H1651; first compound 2 µM): 0.293 | relative viability (NCI-H1651; first compound 6.325 µM): 0.377 | relative viability (NCI-H1651; first compound 20 µM): 0.339 | relative viability (HCC-44; first compound 0.2 µM): 0.265 | relative viability (HCC-44; first compound 0.6325 µM): 0.137 | relative viability (HCC-44; first compound 2 µM): 0.244 | relative viability (HCC-44; first compound 6.325 µM): 0.2 | relative viability (HCC-44; first compound 20 µM): 0.236 | relative viability (NCI-H358; first compound 0.2 µM): 0.341 | relative viability (NCI-H358; first compound 2 µM): 0.253 | relative viability (NCI-H358; first compound 6.325 µM): 0.279 | relative viability (NCI-H358; first compound 20 µM): 0.0042
